The record followed here is patent publication US8222230B2, “Pharmaceutical compositions with superior product performance and patient compliance” (Hoffmann-La Roche Inc., priority 2009, dated 2012).

The term pKa denotes the negative logarithm of the acid dissociation constant. Low values mean a group that gives up its proton readily, high ones a group that holds its proton tightly.

The nature of one data set: pKa of compound 1. It is filed as physicochemical. The note with it: weak base. The source says:
(§1) Compound 1 is being evaluated in the clinic for the treatment of liver infection caused by hepatitis C virus. The estimated daily dose is 1 g-2 g requiring high drug loading in the drug product to provide the best treatment regimen for the patients. […] The high dose and need for an immediate release profile are further complicated by the low bulk density of the drug substance (0.04 to 0.3 g/cc). The conventional manufacturing technologies employing commonly used excipients require the use of multiple densification steps as well as high amounts of excipients such as binders. In addition to the multi-step manufacturing process, the high usage of binder has a negative impact on the dissolution of the product resulting in lower bioavailability.

The nature of data set [1]: pH solubility profile of compound 1 at room temperature (FIG. 1). It is filed as physicochemical. The note with it: pH>4, FIG. 1.
Text: as §1
FIG. 1 provides a graph illustrating the pH solubility profile of compound 1 at room temperature.

For the molecule `CC(C)C(=O)OC[C@H]1O[C@@H](n2ccc(N)nc2=O)[C@](C)(F)[C@@H]1OC(=O)C(C)C` [Compound 1, Isobutyric acid (2R,3R,4R,5R)-5-(4-amino-2-oxo-2H-pyrimidin-1-yl)-4-fluoro-2-isobutyryloxymethyl-4-methyl-tetrahydro-furan-3-yl ester], the pKa in the data set “pKa of compound 1” stood at 3.5. The “drug solubility vs pH” value in data set [1] is “drops precipitously”.
